System: NOMO1
Experiment: cell viability relative to DMSO control; higher = less cytotoxic
Conditions: 48 h
Procedure, shortened: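 Before seeding, each leukemia line was adapted for at least four passages in each medium. NOMO1 or SEM cells (500 cells/well) and P12-Ichikawa cells (1000 cells/well) went into 1536-well plates at 5 μl, then received library compounds in DMSO by pin dosing across 11 threefold concentrations, 47 μM to 0.79 nM. Readout was CellTiter-Glo One luminescence after 48 h at 37°C, and viability is given as a per-plate percentage of DMSO wells, with cell-free wells as background.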

[1] = HPLM + 10% dialyzed FBS, 0.000781 µM
[2] = HPLM + 10% dialyzed FBS, 0.00234 µM
[3] = HPLM + 10% dialyzed FBS, 0.00702 µM
[4] = HPLM + 10% dialyzed FBS, 0.0211 µM
[5] = HPLM + 10% dialyzed FBS, 0.0632 µM
[6] = HPLM + 10% dialyzed FBS, 0.19 µM
[7] = HPLM + 10% dialyzed FBS, 0.569 µM
[8] = HPLM + 10% dialyzed FBS, 1.71 µM
[9] = HPLM + 10% dialyzed FBS, 5.12 µM
[10] = HPLM + 10% dialyzed FBS, 15.4 µM
[11] = HPLM + 10% dialyzed FBS, 46.1 µM
[12] = RPMI 5 mM glucose + 10% FBS, 0.000781 µM
[13] = RPMI 5 mM glucose + 10% FBS, 0.00234 µM
[14] = RPMI 5 mM glucose + 10% FBS, 0.00702 µM
[15] = RPMI 5 mM glucose + 10% FBS, 0.0211 µM
[16] = RPMI 5 mM glucose + 10% FBS, 0.0632 µM
[17] = RPMI 5 mM glucose + 10% FBS, 0.19 µM
[18] = RPMI 5 mM glucose + 10% FBS, 0.569 µM
[19] = RPMI 5 mM glucose + 10% FBS, 1.71 µM
[20] = RPMI 5 mM glucose + 10% FBS, 5.12 µM
[21] = RPMI 5 mM glucose + 10% FBS, 15.4 µM
[22] = RPMI 5 mM glucose + 10% FBS, 46.1 µM
[23] = RPMI 5 mM glucose + 10% dialyzed FBS, 0.000781 µM
[24] = RPMI 5 mM glucose + 10% dialyzed FBS, 0.00234 µM
[25] = RPMI 5 mM glucose + 10% dialyzed FBS, 0.00702 µM
[26] = RPMI 5 mM glucose + 10% dialyzed FBS, 0.0211 µM
[27] = RPMI 5 mM glucose + 10% dialyzed FBS, 0.0632 µM
[28] = RPMI 5 mM glucose + 10% dialyzed FBS, 0.19 µM
[29] = RPMI 5 mM glucose + 10% dialyzed FBS, 0.569 µM
[30] = RPMI 5 mM glucose + 10% dialyzed FBS, 1.71 µM
[31] = RPMI 5 mM glucose + 10% dialyzed FBS, 5.12 µM
[32] = RPMI 5 mM glucose + 10% dialyzed FBS, 15.4 µM
[33] = RPMI 5 mM glucose + 10% dialyzed FBS, 46.1 µM

SMILES | cell viability [1] [%] | cell viability [2] [%] | cell viability [3] [%] | cell viability [4] [%] | cell viability [5] [%] | cell viability [6] [%] | cell viability [7] [%] | cell viability [8] [%] | cell viability [9] [%] | cell viability [10] [%] | cell viability [11] [%] | cell viability [12] [%] | cell viability [13] [%] | cell viability [14] [%] | cell viability [15] [%] | cell viability [16] [%] | cell viability [17] [%] | cell viability [18] [%] | cell viability [19] [%] | cell viability [20] [%] | cell viability [21] [%] | cell viability [22] [%] | cell viability [23] [%] | cell viability [24] [%] | cell viability [25] [%] | cell viability [26] [%] | cell viability [27] [%] | cell viability [28] [%] | cell viability [29] [%] | cell viability [30] [%] | cell viability [31] [%] | cell viability [32] [%] | cell viability [33] [%]
CC(=O)OCC(=O)[C@@]12OC(C)(C)O[C@@H]1C[C@H]3[C@@H]4C[C@H](F)C/5=C/C(=O)/C=C\[C@]5(C)[C@@]4(F)[C@@H](O)C[C@]23C | 120 | 117 | 115 | 126 | 114 | 115 | 105 | 115 | 112 | 120 | 122 | 103 | 107 | 103 | 119 | 114 | 109 | 111 | 113 | 116 | 123 | 128 | 109 | 108 | 104 | 113 | 111 | 132 | 116 | 132 | 131 | 121 | 144
CCOc1cc(/C=C2/C(=O)N(c3ccccc3)N=C2C)cc(Cl)c1OCC(=O)OC | 86.1 | 92.5 | 93 | 93.5 | 84.4 | 95.5 | 101 | 96.3 | 87.5 | 77.6 | 85.1 | 81.8 | 80.8 | 82.1 | 89.2 | 93.6 | 89.5 | 93.3 | 88.4 | 78.4 | 91.8 | 83 | 89.2 | 88.5 | 94.9 | 85.5 | 92.6 | 102 | 85 | 82.8 | 86.7 | 84.6 | 87.5
NC/1=N/C(=O)N(C[C@@H](CO)OC[P](O)(O)=O)/C=C1 |  |  |  |  |  |  |  |  |  |  |  | 125 | 149 | 123 | 122 | 136 | 135 | 128 | 119 | 122 | 123 | 128 |  |  |  |  |  |  |  |  |  |  | 
CC(C)C(=O)Nc1ncc(-c2cc(C(F)F)nn2-c2c(Cl)cccc2Cl)s1 | 116 | 123 | 112 | 137 | 152 | 125 | 148 | 132 | 133 | 133 | 83.9 |  |  |  |  |  |  |  |  |  |  |  |  |  |  |  |  |  |  |  |  |  | 
CC(C[N+](C)(C)C)OC(N)=O (stereo not drawn) | 128 | 124 | 121 | 119 | 131 | 128 | 116 | 117 | 119 | 139 | 103 | 115 | 109 | 119 | 106 | 118 | 108 | 108 | 105 | 100 | 101 | 97.5 |  |  |  |  |  |  |  |  |  |  | 
O=C(C1CC1)N1CC[C@@H](Cn2c(-c3ccc(-c4ccc5occc5c4)cc3)nc3cnccc32)C1 | 93.7 | 128 | 117 | 112 | 122 | 135 | 121 | 134 | 117 | 123 | 82.6 | 117 | 101 | 104 | 102 | 111 | 104 | 106 | 115 | 119 | 109 | 113 | 101 | 115 | 107 | 129 | 120 | 112 | 119 | 114 | 109 | 110 | 100
CCC[C@@H](C=O)NC(=O)[C@H](CC(C)C)NC(=O)[C@H](CC(C)C)NC(=O)OCc1ccccc1 | 113 | 121 | 121 | 138 | 138 | 139 | 138 | 75.4 | 19.2 | 7.83 | 5.86 | 101 | 110 | 119 | 135 | 126 | 127 | 127 | 35.3 | 13.9 | 8.52 | 7.79 | 115 | 130 | 124 | 131 | 143 | 143 | 132 | 93.1 | 32.4 | 9.45 | 7.3
O=C(O)CCNc1cc(N2CCc3ccccc3CC2)nc(-c2ccccn2)n1 | 111 | 133 | 115 | 138 | 140 | 123 | 111 | 116 | 117 | 94.5 | 75.9 | 121 | 105 | 107 | 111 | 104 | 128 | 115 | 106 | 116 | 105 | 92.9 | 121 | 123 | 124 | 128 | 127 | 121 | 136 | 111 | 117 | 97.3 | 96.1
COc1cccc2c(NCc3ccccc3)nc(-n3c(N)nc4ccccc43)nc12 | 85.6 | 106 | 94.9 | 110 | 129 | 105 | 115 | 107 | 107 | 97 | 18.8 | 92.8 | 96.2 | 105 | 105 | 117 | 107 | 106 | 101 | 101 | 102 | 16.7 | 91.2 | 96.2 | 119 | 111 | 111 | 108 | 103 | 112 | 100 | 97.2 | 23.3
CCc1ccc(C(=O)Nc2cc(CN3CCN(C)CC3)cc(C(F)(F)F)c2)cc1C#Cc1cnc2ccnn2c1 | 117 | 113 | 123 | 118 | 109 | 129 | 134 | 142 | 104 | 103 | 101 | 99.5 | 112 | 113 | 114 | 120 | 110 | 119 | 116 | 119 | 128 | 102 | 115 | 119 | 107 | 112 | 120 | 114 | 125 | 119 | 120 | 107 | 113
O=P1(N(CCCl)CCCl)NCCCO1 (stereo not drawn) | 134 | 106 | 108 | 115 | 101 | 112 | 122 | 120 | 97.6 | 91 | 75.7 | 108 | 98.4 | 110 | 99.7 | 102 | 103 | 97.8 | 87.3 | 91.4 | 50.5 | 47.5 | 85.1 | 110 | 99.7 | 119 | 119 | 112 | 103 | 110 | 84.9 | 54 | 50.7
C[C@@H](NCc1cc2ccccc2[nH]1)c1cccc2ccccc12 | 88.3 | 82.2 | 91.6 | 90.6 | 94.6 | 95.5 | 91.9 | 95.2 | 97.1 | 92.3 | 100 | 84.3 | 87.5 | 80.1 | 86.1 | 90.5 | 88.1 | 97.4 | 89.8 | 95.5 | 94.5 | 91.8 | 93.6 | 89.8 | 89 | 87.8 | 84.2 | 102 | 102 | 93.7 | 97 | 92.3 | 102
NC(=O)c1cnc(-c2ccc(C3(N)CCC3)cc2)c(-c2ccccc2)c1 |  |  |  |  |  |  |  |  |  |  |  | 119 | 117 | 126 | 117 | 136 | 122 | 128 | 132 | 127 | 131 | 76.9 |  |  |  |  |  |  |  |  |  |  | 
NC1CCC(Nc2nc(Nc3ccc(C(=O)N4CCCCC4)cc3)c3ncn(-c4cccc(F)c4)c3n2)CC1 (stereo not drawn) | 114 | 110 | 119 | 121 | 132 | 117 | 129 | 144 | 107 | 119 | 154 | 117 | 113 | 113 | 126 | 123 | 124 | 129 | 107 | 123 | 128 | 129 | 118 | 114 | 133 | 113 | 121 | 127 | 127 | 121 | 125 | 119 | 123
Nc1nc(Nc2ccc([S+](N)(=O)[O-])cc2)nn1C(=O)c1c(F)cccc1F | 94.7 | 97.4 | 90.6 | 113 | 105 | 109 | 102 | 107 | 120 | 66.1 | 7.01 | 94.7 | 87.8 | 107 | 94 | 94.7 | 99.3 | 93.8 | 87.2 | 93.2 | 50.4 | 8.21 | 98.7 | 86.1 | 100 | 91.5 | 86.9 | 92.7 | 93.1 | 104 | 84.4 | 49.5 | 5.65

From the supplement of paper PMC11451515
